Source: patent US20240182445A1 (ONO PHARMACEUTICAL CO., LTD., priority 2019, published 2024)

Molecular target: T1, human TREK-1 (Homo sapiens, UniProt O95069)
T1 construct: expressed in transfected cells
T1 sequence (O95069 1-426): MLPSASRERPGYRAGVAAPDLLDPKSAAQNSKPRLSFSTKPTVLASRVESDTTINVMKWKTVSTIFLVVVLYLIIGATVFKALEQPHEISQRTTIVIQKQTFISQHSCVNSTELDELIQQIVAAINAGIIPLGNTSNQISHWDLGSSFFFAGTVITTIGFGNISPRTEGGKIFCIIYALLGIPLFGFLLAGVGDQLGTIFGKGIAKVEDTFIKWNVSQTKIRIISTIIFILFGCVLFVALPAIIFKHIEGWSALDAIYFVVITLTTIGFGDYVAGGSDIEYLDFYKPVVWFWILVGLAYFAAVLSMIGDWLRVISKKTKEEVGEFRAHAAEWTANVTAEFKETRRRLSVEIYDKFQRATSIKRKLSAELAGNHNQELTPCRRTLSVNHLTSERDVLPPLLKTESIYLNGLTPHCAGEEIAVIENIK
Assay: TREK-1 Thallium (Tl+) flux assay, Method 1
Format: cell-based
Conditions: TREK-1 Thallium (Tl+) flux assay, Method 1
Outline: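 CHO-K1 cells stably expressing human TREK-1, loaded with Thallos dye, received compound or 0.3% DMSO vehicle for 10 min before thallium stimulus buffer. ΔRatio is fluorescence at 25 s after thallium addition over mean pre-addition fluorescence; % inhibition calculated from it.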

Row | Structure (SMILES) | IC50 [nM]
1 | Cc1cc(OCc2ccccc2)ccc1NC(=O)c1c(Cl)cnn1C1CCN(C(=O)OC(C)(C)C)CC1 [Compound 430, tert-butyl 4-(5-((4-(benzyloxy)-2-methylphenyl)carbamoyl)-4-chloro-1H-pyrazol-1-yl)piperidine-1-carboxylate] | 6350
2 | Cc1cc(-c2ccc(-c3cccs3)cc2)cnc1NC(=O)c1c(Cl)cnn1C1CCN(C(=O)OC(C)(C)C)CC1 [Compound 410, tert-butyl 4-(4-chloro-5-((3-methyl-5-(4-(thiophen-2-yl)phenyl)pyridin-2-yl)carbamoyl)-1H-pyrazol-1-yl)piperidine-1-carboxylate] | 2780
3 | CC(=O)N1CCC(n2ncc(Cl)c2C(=O)Nc2ncc(-c3cnc4ccccc4c3)cc2C)CC1 [Compound 422, 1-(1-acetylpiperidin-4-yl)-4-chloro-N-(3-methyl-5-(quinolin-3-yl)pyridin-2-yl)-1H-pyrazole-5-carboxamide] | 4460

Same assay, conditions: TREK-1 Thallium (Tl+) flux assay; no *^12 (Method 2) mark on these rows

Row | IC50 [nM] | Structure (SMILES)
4 | 910 | Cc1cc(C#Cc2ccc(F)cc2)cnc1NC(=O)c1c(Cl)cnn1C1CC2(CCN(C(=O)C3CC3)C2)C1 (single isomer, unassigned) [Compound 363, 4-chloro-1-[(2s,4r)-6-(cyclopropanecarbonyl)-6-azaspiro[3.4]octan-2-yl]-N-{5-[(4-fluorophenyl)ethynyl]-3-methylpyridin-2-yl}-1H-pyrazole-5-carboxamide or 4-chloro-1-[(2r,4s)-6-(cyclopropanecarbonyl)-6-azaspiro[3.4]octan-2-yl]-N-{5-[(4-fluorophenyl)ethynyl]-3-methylpyridin-2-yl}-1H-pyrazole-5-carboxamide]
5 | 430 | Cc1cc(C#Cc2ccc(F)cc2)cnc1NC(=O)c1c(Cl)cnn1CC1CCCN(C(=O)C2CC2C)C1 (centres unmarked) [Compound 264, 4-chloro-N-(5-((4-fluorophenyl)ethynyl)-3-methylpyridin-2-yl)-1-((1-(2-methylcyclopropane-1-carbonyl)piperidin-3-yl)methyl)-1H-pyrazole-5-carboxamide]
6 | 620 | O=C(Nc1ncc(C#Cc2ccccc2)cc1F)c1c(Cl)cnn1C[C@@H]1C[C@H]2CC[C@@H]1O2 (racemic) [Compound 319, 4-chloro-N-[3-fluoro-5-(phenylethynyl)pyridin-2-yl]-1-{[(1S,2S,4R)-7-oxabicyclo[2.2.1]heptan-2-yl]methyl}-1H-pyrazole-5-carboxamide and 4-chloro-N-[3-fluoro-5-{[(1R,2R,4S)-7-oxabicyclo[2.2.1]heptan-2-yl)methyl}-1H-pyrazole-5-carboxamide]
7 | 400 | O=C(Nc1ncc(C#Cc2cccs2)cc1F)c1c(Cl)cnn1CCC1CCN(C(=O)C2CC2)CC1 [Compound 250, 4-chloro-1-(2-(1-(cyclopropanecarbonyl)piperidin-4-yl)ethyl)-N-(3-fluoro-5-(thiophen-2-ylethynyl)pyridin-2-yl)-1H-pyrazole-5-carboxamide]
8 | 530 | CC(C)(C)OC(=O)N[C@H]1CC[C@@H](n2ncc(Cl)c2C(=O)Nc2ncc(C#Cc3ccccc3)cc2F)CC1 [Compound 294, tert-butyl (cis-4-(4-chloro-5-((3-fluoro-5-(phenylethynyl)pyridin-2-yl)carbamoyl)-1H-pyrazol-1-yl)cyclohexyl)carbamate]
9 | 580 | Cc1cc(C#Cc2ccccc2)cnc1NC(=O)c1c(Cl)cnn1C1CCOC1 (centres unmarked) [Compound 306, 4-chloro-N-(3-methyl-5-(phenylethynyl)pyridin-2-yl)-1-(tetrahydrofuran-3-yl)-1H-pyrazole-5-carboxamide]
10 | 880 | Cc1cc(C#Cc2ccccc2)cnc1NC(=O)c1c(Cl)cnn1C1CCCC(NC(=O)OC(C)(C)C)C1 (centres unmarked) [Compound 358, tert-butyl (3-(4-chloro-5-((3-methyl-5-(phenylethynyl)pyridin-2-yl)carbamoyl)-1H-pyrazol-1-yl)cyclohexyl)carbamate]

Further lines, the molecule ahead of its results:

Row | Structure (SMILES) | IC50 [nM]
11 | Cc1cc(C#Cc2ccc(F)cc2)cnc1NC(=O)c1c(Cl)cnn1CC1(F)CCN(C(=O)C(C)C)CC1 [Compound 339, 4-chloro-1-((4-fluoro-1-isobutyrylpiperidin-4-yl)methyl)-N-(5-((4-fluorophenyl)ethynyl)-3-methylpyridin-2-yl)-1H-pyrazole-5-carboxamide] | 730
12 | Cn1nc(Cl)c(C(=O)Nc2ncc(C#Cc3ccccc3)cc2F)c1-c1ccc2c(cnn2C)c1 [Compound 372, 3-chloro-N-(3-fluoro-5-(phenylethynyl)pyridin-2-yl)-1-methyl-5-(1-methyl-1H-indazol-5-yl)-1H-pyrazole-4-carboxamide] | 1080
13 | Cc1cc(C#Cc2ccccc2)cc(F)c1NC(=O)c1c(Cl)cnn1C[C@H]1COCCO1 [Compound 285, (S)-1-((1,4-dioxan-2-yl)methyl)-4-chloro-N-(2-fluoro-6-methyl-4-(phenylethynyl)phenyl)-1H-pyrazole-5-carboxamide] | 500
14 | CC(=O)N1CC2CC(C1)C2Cn1ncc(Cl)c1C(=O)Nc1ncc(C#Cc2ccccc2)cc1F (centres unmarked) [Compound 326, 1-((3-acetyl-3-azabicyclo[3.1.1]heptan-6-yl)methyl)-4-chloro-N-(3-fluoro-5-(phenylethynyl)pyridin-2-yl)-1H-pyrazole-5-carboxamide] | 640
15 | CC(C)(C)C(=O)N1CCC(n2ncc(Cl)c2C(=O)Nc2ncc(C#Cc3cccs3)cc2F)CC1 [Compound 247, 4-chloro-N-(3-fluoro-5-(thiophen-2-ylethynyl)pyridin-2-yl)-1-(1-pivaloylpiperidin-4-yl)-1H-pyrazole-5-carboxamide] | 390
16 | Cc1cc(-c2cnn(-c3ccc(F)cc3)c2)cnc1NC(=O)c1c(Cl)cnn1CC1(C#N)CC1 [Compound 389, 4-chloro-1-((1-cyanocyclopropyl)methyl)-N-(5-(1-(4-fluorophenyl)-1H-pyrazol-4-yl)-3-methylpyridin-2-yl)-1H-pyrazole-5-carboxamide] | 1210

Same assay, conditions: TREK-1 Thallium (Tl+) flux assay; values without footnote *12 are Method 1

Row | IC50 [nM] | Structure (SMILES)
17 | 240 | CC(=O)N1CCC(Cn2ncc(Cl)c2C(=O)Nc2ncc(C#Cc3cccc(F)c3)cc2C)CC1 [Compound 150, 1-((1-acetylpiperidin-4-yl)methyl)-4-chloro-N-(5-((3-fluorophenyl)ethynyl)-3-methylpyridin-2-yl)-1H-pyrazole-5-carboxamide]
18 | 250 | CCNC(=O)N1CCC(n2ncc(Cl)c2C(=O)Nc2ncc(C#Cc3ccccc3)cc2F)CC1 [Compound 158, 4-(4-chloro-5-((3-fluoro-5-(phenylethynyl)pyridin-2-yl)carbamoyl)-1H-pyrazol-1-yl)-N-ethylpiperidine-1-carboxamide]
19 | 260 | Cc1cc(C#Cc2ccc(F)cc2)cnc1NC(=O)c1c(Cl)cnn1[C@H]1CC[C@@H](NC(=O)C2CC2)CC1 [Compound 165, 4-chloro-1-(cis-4-(cyclopropanecarboxamido)cyclohexyl)-N-(5-((4-fluorophenyl)ethynyl)-3-methylpyridin-2-yl)-1H-pyrazole-5-carboxamide]
20 | 270 | Cc1cc(C#Cc2ccccc2)cnc1NC(=O)c1c(Cl)cnn1CCC1CCN(C(=O)C2CC2)CC1 [Compound 172, 4-chloro-1-(2-(1-(cyclopropanecarbonyl)piperidin-4-yl)ethyl)-N-(3-methyl-5-(phenylethynyl)pyridin-2-yl)-1H-pyrazole-5-carboxamide]
21 | 230 | CC(C)C(=O)N1CCOC(Cn2ncc(Cl)c2C(=O)Nc2ncc(C#Cc3ccccc3)cc2F)C1 (centres unmarked) [Compound 145, 4-chloro-N-(3-fluoro-5-(phenylethynyl)pyridin-2-yl)-1-((4-isobutyrylmorpholin-2-yl)methyl)-1H-pyrazole-5-carboxamide]
22 | 290 | CC(=O)N1CCC(Cn2ncc(Cl)c2C(=O)Nc2ncc(C#Cc3ccccc3)cc2F)C(F)(F)C1 (centres unmarked) [Compound 192, 1-((1-acetyl-3,3-difluoropiperidin-4-yl)methyl)-4-chloro-N-(3-fluoro-5-(phenylethynyl)pyridin-2-yl)-1H-pyrazole-5-carboxamide]
23 | 70 | CC(=O)N1CC[C@@H](n2ncc(Cl)c2C(=O)Nc2ncc(C#Cc3ccccc3)cc2F)[C@H](F)C1 [Compound 20, 1-((3R,4R)-1-acetyl-3-fluoropiperidin-4-yl)-4-chloro-N-(3-fluoro-5-(phenylethynyl)pyridin-2-yl)-1H-pyrazole-5-carboxamide]
24 | 240 | Cc1cc(C#Cc2ccccc2)cnc1NC(=O)c1c(Cl)cnn1CC1(F)CCN(C(=O)OC(C)(C)C)CC1 [Compound 155, tert-butyl 4-((4-chloro-5-((3-methyl-5-(phenylethynyl)pyridin-2-yl)carbamoyl)-1H-pyrazol-1-yl)methyl)-4-fluoropiperidine-1-carboxylate]

Further lines, the molecule ahead of its results:

Row | Structure (SMILES) | IC50 [nM]
25 | Cc1cc(C#Cc2cccs2)cnc1NC(=O)c1c(Cl)cnn1C1CC2(C1)CN(C(=O)C1COCCO1)C2 (centres unmarked) [Compound 97, 1-(2-(1,4-dioxane-2-carbonyl)-2-azaspiro[3.3]heptan-6-yl)-4-chloro-N-(3-methyl-5-(thiophen-2-ylethynyl)pyridin-2-yl)-1H-pyrazole-5-carboxamide] | 180
26 | CCNC(=O)N1CCC(n2ncc(Cl)c2C(=O)Nc2ncc(C#Cc3cccs3)cc2C)CC1 [Compound 73, 4-(4-chloro-5-((3-methyl-5-(thiophen-2-ylethynyl)pyridin-2-yl)carbamoyl)-1H-pyrazol-1-yl)-N-ethylpiperidine-1-carboxamide] | 160
